Entries after “also recorded” stand apart in the source; their conditions may differ.
Experiments:
[1] = test system: Lin^−/CD34^+/CD38^−/CD123^+ cancer stem cells in KG1a cells; assay: Immunophenotypic quantification of the leukaemic stem cell compartment in KG1a cells; type: cell-based, human; conditions: for low concentration at which the selective reduction of cancer stem cells was still observed / proportion of cancer stem cells as compared to non-stem cancer cells after treatment / selectivity against cancer stem cells compared to the parent compound: KG1a cells; for proportion of cancer stem cells as compared to non-stem cancer cells after treatment: 72 h; for selectivity for cancer stem cells as opposed to non-stem cancer cells (summary): summary statement of the description
Description: The respective abilities of NUC-1031 and gemcitabine to target CSCs were investigated in the AML cell line KG1a.
KG1a cells were cultured for 72 hours in the presence of a wide range of concentrations of each nucleoside analogue and their respective ProTides. Cells were then harvested and labelled with a cocktail of anti-lineage antibodies (PE-cy7), anti-CD34 (FITC), anti-CD38 (PE) and anti-CD123 (PERCP cy5). The sub-population expressing a leukaemic stem cell (LSC) phenotype were subsequently identified and were expressed as a percentage of all viable cells left in the culture. The percentages of stem cells remaining were then plotted on a dose-response graph and the proportion of cancer stem cells was compared across the various concentrations of ProTides and their respective parent compounds, in order to determine if they preferentially target cancer stem cells.
The data obtained in these experiments were evaluated using one way ANOVA. All data was confirmed as Gaussian or a Gaussian approximation using the omnibus K2 test. LD50 values were calculated from the non-linear regression and line of best-fit analysis of the sigmoidal dose-response curves. All statistical analyses were performed using Graphpad Prism 6.0 software (Graphpad Software Inc., San Diego, Calif.).

[2] = test system: primary acute myeloid leukaemia (AML) blasts; assay: In vitro cytotoxicity assay (LD50) in primary acute myeloid leukaemia cells; type: cell-based, human; conditions: for LD50: primary AML blasts, 48 h, concentration required to kill 50% of the tumour cells in culture; for potency as compared to the respective parent compound (summary): summary statement of the description
Description: ProTide compounds, as defined herein, and the comparator ProTide compound NUC-1031 were assayed for their cytotoxic effects on primary cultures of acute myeloid leukaemia (AML) blasts. LD50 values (the concentration required to kill 50% of the tumour cells in culture) were calculated in respect of the ProTide compounds of the invention, and the parent compounds from which they are derived. […] The LD50 values of the ProTide compounds as defined herein (and their parent compounds) were compared with the comparator ProTide NUC-1031 and its parent compound gemcitabine.
Bone marrow samples were collected in ethylenediaminetetraacetic acid (EDTA) from newly diagnosed, previously untreated, acute myeloid leukaemia (AML) patients. AML blasts were enriched by density gradient centrifugation using Histopaque (Sigma, Poole, UK) and were subsequently maintained in Roswell Park Memorial Institute medium (RPMI) supplemented with 10% foetal bovine serum (FBS). Cells were treated with ProTide compounds (either as encompassed by the present invention, or the comparator ProTide NUC-1031) or with the ProTides' parent compounds at a range of experimental concentrations, and incubated for 48 h. All cultures were maintained at 37° C. in a 5% CO2 humidified atmosphere.
Cells were harvested and labelled with CD34-fluorescein isothiocyanate (FITC) (BD Biosciences, Buckingham, UK) and then resuspended in 200 μl of binding buffer containing 4 μl of annexin V labelled with allophycocyanin (APC) (eBioscience Ltd, Hatfield, UK). Apoptosis was quantified in the CD34^+ AML cells using an Accuri C6 flow cytometer (Becton Dickinson, CA, USA). At least 10,000 events were acquired and data were subsequently analysed using FlowJo software (Tree Star Inc., Ashland, Oreg., USA). All LD50 values (concentration of drug required to kill 50% of cells) were derived from the dose-response curves.

| Compound | low concentration at which the selective reduction of cancer stem cells was still observed [1] | proportion of cancer stem cells as compared to non-stem cancer cells after treatment [1] | selectivity for cancer stem cells as opposed to non-stem cancer cells (summary) [1] | LD50 [2] | potency as compared to the respective parent compound (summary) [2] | selectivity against cancer stem cells compared to the parent compound [1] |
| --- | --- | --- | --- | --- | --- | --- |
| C[C@H](NP(=O)(OC[C@H]1O[C@@H](n2cc(F)c(=O)[nH]c2=O)CC1O)Oc1cccc2ccccc12)C(=O)OCc1ccccc1 (single isomer, unassigned) [CPF-373 (Iso A)] | approximately 8×10^−8 M | reduction in the proportion of cancer stem cells | selectively target for cancer stem cells; also recorded: high selectivity for cancer stem cells | CPF 373 (Iso A) 0.052 μM | greater potency | – |
| C[C@H](NP(=O)(OC[C@H]1O[C@@H](n2cc(F)c(=O)[nH]c2=O)CC1O)Oc1cccc2ccccc12)C(=O)OCc1ccccc1 (single isomer, unassigned) [CPF-373 (Iso B)] | approximately 8×10^−8 M | reduction in the proportion of cancer stem cells | selectively target for cancer stem cells; also recorded: high selectivity for cancer stem cells | CPF 373 (Iso B) 0.055 μM | greater potency | – |
| C[C@H](NP(=O)(OC[C@H]1O[C@@H](n2cc(F)c(=O)[nH]c2=O)CC1O)Oc1cccc2ccccc12)C(=O)OCc1ccccc1 (some centres unmarked) [CPF-373 (mix)] | – | – | – | CPF 373 (mix) 0.053 μM | – | – |
| C[C@H](NP(=O)(OC[C@H]1O[C@@H](n2cc(F)c(=O)[nH]c2=O)CC1O)Oc1ccccc1)C(=O)OCc1ccccc1 (some centres unmarked) [CPF-381] | approximately 8×10^−8 M | reduction in the proportion of cancer stem cells | selectively target for cancer stem cells; also recorded: high selectivity for cancer stem cells | CPF 381 0.039 μM | greater potency | – |
| C[C@H](NP(=O)(OC[C@H]1O[C@@H](n2cnc3c(N)nc(Cl)nc32)[C@H](F)C1O)Oc1ccccc1)C(=O)OCc1ccccc1 (some centres unmarked) [CPF-448] | approximately 6×10^−8 M | reduction in the proportion of cancer stem cells | selectively target for cancer stem cells; also recorded: high selectivity for cancer stem cells | – | – | greater selectivity |
| CCOC(=O)[C@H](C)NP(=O)(OC[C@H]1O[C@@H](n2cnc3c(N)nc(F)nc32)[C@H](O)C1O)Oc1cccc2ccccc12 (some centres unmarked) [CPF-544] | – | significant decrease in the proportion of cancer stem cells | selectively target for cancer stem cells; also recorded: high selectivity for cancer stem cells | – | – | comparable |
| C[C@H](NP(=O)(OC[C@H]1O[C@@H](n2cnc3c(N)nc(F)nc32)[C@H](O)C1O)Oc1ccccc1)C(=O)OCc1ccccc1 (some centres unmarked) [CPF-682] | – | significant decrease in the proportion of cancer stem cells | selectively target for cancer stem cells; also recorded: high selectivity for cancer stem cells | – | – | comparable |
| C[C@H](NP(=O)(OC[C@H]1O[C@@H](n2cnc3c(N)nc(Cl)nc32)[C@H](F)C1O)Oc1cccc2ccccc12)C(=O)OCC(C)(C)C (some centres unmarked) [CPF-720] | approximately 6×10^−8 M | reduction in the proportion of cancer stem cells | selectively target for cancer stem cells | – | – | – |
| CCCCCOC(=O)[C@@H](C)NP(=O)(OC[C@H]1O[C@@H](n2cnc3c(N)nc(Cl)nc32)[C@H](F)C1O)Oc1cccc2ccccc12 (some centres unmarked) [CPF-727] | approximately 6×10^−8 M | reduction in the proportion of cancer stem cells | selectively target for cancer stem cells | – | – | – |
| C[C@H](NP(=O)(OC[C@H]1O[C@@H](n2cnc3c(=S)[nH]cnc32)[C@@H](O)C1O)Oc1cccc2ccccc12)C(=O)OCc1ccccc1 (some centres unmarked) [CPF-761] | – | reduction of the proportion of cancer stem cells | selectively target for cancer stem cells | – | – | greater selectivity; also recorded: most selective; also recorded: increase in selectivity was statistically significant |
| C[C@H](NP(=O)(OC[C@H]1O[C@@H](n2cnc3c(=S)[nH]cnc32)[C@@H](O)C1O)Oc1cccc2ccccc12)C(=O)OCC(C)(C)C (some centres unmarked) [CPF-762] | – | reduction of the proportion of cancer stem cells | selectively target for cancer stem cells | – | – | greater selectivity |
| C[C@H](NP(=O)(OC[C@H]1O[C@@H](n2cnc3c(=S)[nH]c(N)nc32)[C@@H](O)C1O)Oc1cccc2ccccc12)C(=O)OCc1ccccc1 (some centres unmarked) [CPF-775] | – | strong reduction in the proportion of cancer stem cells | selectively target for cancer stem cells; also recorded: high selectivity for cancer stem cells | – | – | statistically significant increases in selectivity at certain concentrations |
| C[C@H](NP(=O)(Oc1cccc2ccccc12)OC1C[C@H](n2cnc3c(N)nc(Cl)nc32)O[C@@H]1CO)C(=O)OCc1ccccc1 (some centres unmarked) [CPF-791] | – | reduction in the proportion of cancer stem cells | selectively target for cancer stem cells | – | – | greater selectivity |
| C[C@H](NP(=O)(Oc1ccccc1)OC1C[C@H](n2cnc3c(N)nc(Cl)nc32)O[C@@H]1CO)C(=O)OCc1ccccc1 (some centres unmarked) [CPF-793] | approximately 6×10^−8 M | reduction in the proportion of cancer stem cells; also recorded: particularly striking | selectively target for cancer stem cells; also recorded: high selectivity for cancer stem cells | – | – | greater selectivity; also recorded: statistically significant |
| Nc1nc(Cl)nc2c1ncn2[C@H]1C[C@H](O)[C@@H](CO)O1 [Cladribine] | – | reduction in the proportion of cancer stem cells | – | – | – | – |
| Nc1nc(Cl)nc2c1ncn2[C@@H]1O[C@H](CO)[C@@H](O)[C@@H]1F [Clofarabine] | approximately 6×10^−8 M | reduction in the proportion of cancer stem cells | – | – | – | – |
| Nc1ccn([C@@H]2O[C@H](CO)[C@@H](O)C2(F)F)c(=O)n1 [Gemcitabine] | – | – | – | Gemcitabine 1.4 μM | – | – |
| OC[C@H]1O[C@@H](n2cnc3c(S)ncnc32)[C@H](O)[C@@H]1O [Thioinosine] | – | reduction of the proportion of cancer stem cells | – | – | – | – |
